Assays:
MDA-MB-231 cells [1] = assay: Lateral motility assay (wound-heal / scratch); type: cell-based, human
Protocol: This assay was used to represent the “free” motility of cancer cells during local spreading. FIG. 5(a) is a plan view from above of a cell culture dish 501 having a semi-confluent layer of cells 502 on its surface, the cells being in an aqueous medium 503.
In order to determine lateral motility, a “wound-heal (“scratch”)” test was carried out, in which a scratch 504 of ˜0.5 mm was made through the layer of cells, as shown in FIG. 5(b) which is a side sectional view of the cell culture dish.
During the period of 24 hours following the formation of the scratch, the cells moved into the gap.
FIGS. 5(c) and 5(d) are schematic plan views of the cell culture dish 501 at time t=zero when the width of the scratch 504 is w0 and time t=24 hours when the width of the scratch 504 is w24, respectively.
(§1) With the exception of single cell adhesion tests, which are discussed in the following paragraph, experiments were carried out under either; • (i) normal normoxic conditions ([…], 5% carbon dioxide), or • (ii) following 24 hours hypoxic pre-treatment (2% O2, 5% CO2, 93% N2) continued during the assays.

Mat-LyLu cells [2] = assay: Invasion assay (Matrigel Transwell); type: cell-based, rat
Source text: (§2) This assay is an extension of the transverse migration assay described above. To “invade”, the cells need both (i) to move as in the transverse migration assay and (ii) secrete a proteolytic enzyme to digest their surroundings. The ability of cells to invade neighbouring tissues by enzyme secretion was therefore assessed by using a layer of Matrigel™ (BD Biosciences) spread across the porous membrane of a Transwell® insert.
(§3) FIG. 7 is a schematic side sectional view of an invasion chamber 701 having a Transwell® insert 702 separating the chamber into upper 703 and lower 704 sections. The insert 702 has a migration filter membrane 705 in its base with 8 μm pores 706 extending therethrough. A layer 707 of Matrigel™ is shown coating the filter membrane 705.
(§4) Cells 708 were plated at a density of 2×10^4/ml onto the Matrigel™ layer 707 in 24-well plates (Becton-Dickinson) according to the manufacturers' instructions. 50 μl Matrigel™ was seeded at a 1:7 dilution (10 mg/ml stock) onto the inserts and left overnight. Prior to seeding with the cells the Matrigel™ was rehydrated using medium with no additions. This medium was removed prior to seeding the cells.
(§5) Cells were plated in a 1-5% FBS chemotactic gradient overnight (12 hours). The nutrient concentration in the medium 709 in the upper section 703 of the chamber was less than the concentration of nutrient in the medium 710 in the lower section 704 to induced movement of the cells through the Matrigel™ layer 707 and through the pores 706 to the underside of the filter membrane 705. At the end of each assay, non-invaded/non-migrated cells were removed from the upper surface of the insert 702 with two different swabs.
(§6) The number of cells invading to the underside of the insert 702 was determined using crystal violet staining. Invaded cells were fixed for 15 minutes with ice-cold methanol. Then 0.5% crystal violet (in 25% methanol) was added for 15 minutes. The inserts were swabbed again and then washed in water and allowed to dry. Cells were then counted using twelve separate fields of view per insert (×200 magnification). If the difference in the average number of cells invading the two control inserts was more than 40%, the experiment was rejected.
as §1

MDA-MB-231 cells [3] = assay: Invasion assay (Matrigel Transwell); type: cell-based, human; settings: for INVASIVENESS (pretreatment): 72 hours pretreatment
Source text: as §2, §3, §4, §5, §6, §1

Mat-LyLu cells [4] = assay: Cell viability assay (trypan blue); type: cell-based, rat
Protocol: Cells were seeded at a density of 5×10^4 cells/ml in 35 mm Falcon tissue culture dishes. After treatment with a given drug, the medium was removed and replaced with 800 μl of growth medium and 200 μl 0.4% trypan blue (Sigma, Dorset, UK) and incubated for 10 minutes in the incubator. The trypan blue was removed and the cells were washed once with 3 ml growth medium. For each treatment, cells from 30 random fields of view were counted under 100× magnification. The number of dead cells, stained blue, was counted in each field of view. The data were expressed as percentages of living cells out of the total number of cells in given fields of view. The percentages were averaged and differences between control and treatment were compared from at least three independent experiments.
as §1

Mat-LyLu cells [5] = assay: Cell growth (proliferation) assay (MTT); type: cell-based, rat
Protocol: Cells were plated at 2×10^4 cells/ml in 24-well plates (Becton-Dickinson) and allowed to settle overnight. The cells were then treated for the required time of incubation (24 hours+), with medium changes every 24 hours. At the end of the treatment, the medium was removed, and this was followed by the colorimetric 3-[4,5-dimethylthiazol-2-yl]-2,5-diphenyltetrazolium bromide (MTT) assay (Grimes et al., 1995). Briefly, 0.1 ml MTT (5 mg/ml made up in the growth medium) and 0.4 ml growth medium was added in each well and the plate was incubated for 3-4 hours at 37° C. The medium was then removed from the chambers and replaced with 0.5 ml dimethyl sulfoxide (DMSO) and 0.063 ml glycine buffer (0.1 M glycine and 0.1 M NaCl; pH 10.5). Absorbance at 570 nm was determined 15 minutes after the addition of the glycine buffer. Results were calculated as means of nine repeats of each of the treatment vs. control spectrophotometer readings from individual invasion wells.
as §1

[6] = Hypoxia, 5 μM, listed as RILUZOLE

For `Nc1nc2ccc(OC(F)(F)F)cc2s1` [riluzole], the “lateral motility with increasing concentration” value (MDA-MB-231 cells [1]; 1 μM, 10 μM and 100 μM, normoxia and hypoxia) was “reduced the lateral motility of the cells; the effect was greater under hypoxia”, the “LATERAL MOTILITY” value (MDA-MB-231 cells [1]; Hypoxia, 1 μM) was “decreased” and the “LATERAL MOTILITY” value (MDA-MB-231 cells [1]; Hypoxia, 10 μM) was “decreased”. The “LATERAL MOTILITY” value (MDA-MB-231 cells [1]; Hypoxia, 100 μM) was “decreased”, the “LATERAL MOTILITY” value (MDA-MB-231 cells [1]; Normoxia, 1 μM) was “no effect” and the “LATERAL MOTILITY” value (MDA-MB-231 cells [1]; Normoxia, 10 μM) was “decreased”. For the same molecule, the “LATERAL MOTILITY” value (MDA-MB-231 cells [1]; Normoxia, 100 μM) was “decreased”, the “INVASIVENESS (no pretreatment)” value (Mat-LyLu cells [2]; Hypoxia, 1 μM, listed as RILUZOLE) was “decreased” and the “INVASIVENESS (no pretreatment)” value (Mat-LyLu cells [2]; Hypoxia, 1 μM, listed as Riluzole) was “significantly inhibited invasiveness”. For the same molecule, the “INVASIVENESS (no pretreatment)” value (Mat-LyLu cells [2]; Hypoxia, 2.5 μM) was “decreased”, the “INVASIVENESS (no pretreatment)” value (Mat-LyLu cells [2]; Hypoxia, 5 μM) was “decreased” and the “INVASIVENESS (no pretreatment)” value (Mat-LyLu cells [2]; Normoxia, 1 μM, listed as RILUZOLE) was “decreased”. For the same molecule, the “INVASIVENESS (no pretreatment)” value (Mat-LyLu cells [2]; Normoxia, 1 μM, listed as Riluzole) was “significantly inhibited invasiveness”, the “INVASIVENESS (no pretreatment)” value (Mat-LyLu cells [2]; Normoxia, 2.5 μM) was “decreased” and the “INVASIVENESS (no pretreatment)” value (Mat-LyLu cells [2]; Normoxia, 5 μM) was “decreased”. The “INVASIVENESS (no pretreatment)” value (MDA-MB-231 cells [3]; Hypoxia, 1 μM) was “decreased”, the “INVASIVENESS (pretreatment)” value (MDA-MB-231 cells [3]; Hypoxia, 5 μM) was “significantly inhibited invasiveness” and the “INVASIVENESS (pretreatment)” value (MDA-MB-231 cells [3]; [6]) was “decreased”. The “INVASIVENESS (no pretreatment)” value (MDA-MB-231 cells [3]; [6]) was “decreased”, the “INVASIVENESS (no pretreatment)” value (MDA-MB-231 cells [3]; Hypoxia, 5 μM, listed as Riluzole) was “significantly inhibited invasiveness” and the “INVASIVENESS (no pretreatment)” value (MDA-MB-231 cells [3]; Normoxia, 1 μM) was “decreased”. For the same molecule, the “CELL VIABILITY” value (Mat-LyLu cells [4]; Hypoxia, 1 μM) was “no effect”, the “CELL VIABILITY” value (Mat-LyLu cells [4]; Hypoxia, 10 μM, 24 h) was “no effect” and the “CELL VIABILITY” value (Mat-LyLu cells [4]; Hypoxia, 10 μM, 24 h, listed as RILUZOLE) was “cell death”. For the same molecule, the “CELL VIABILITY” value (Mat-LyLu cells [4]; Hypoxia, 30 μM, 24 h) was “no effect”, the “CELL VIABILITY” value (Mat-LyLu cells [4]; Hypoxia, 30 μM, 24 h, listed as RILUZOLE) was “cell death” and the “CELL VIABILITY” value (Mat-LyLu cells [4]; Hypoxia, 100 μM, 24 h) was “no effect”. For the same molecule, the “CELL VIABILITY” value (Mat-LyLu cells [4]; Hypoxia, 100 μM, 24 h, listed as RILUZOLE) was “cell death”, the “CELL VIABILITY” value (Mat-LyLu cells [4]; Normoxia, 10 μM, 24 h) was “no effect” and the “CELL VIABILITY” value (Mat-LyLu cells [4]; Normoxia, 30 μM, 24 h) was “no effect”. For the same molecule, the “CELL VIABILITY” value (Mat-LyLu cells [4]; Normoxia, 100 μM, 24 h) was “no effect”, the “cell proliferation with increasing concentration” value (Mat-LyLu cells [5]; 3 μM, 5 μM, 10 μM and 30 μM, 24 hours, normoxia and hypoxia (2% O2)) was “decreased cell proliferation dose dependently under both normoxia and hypoxia; the effect was greater under hypoxia” and the “PROLIFERATION (24 hours)” value (Mat-LyLu cells [5]; Hypoxia, 3 μM) was “no effect”. The “PROLIFERATION (24 hours)” value (Mat-LyLu cells [5]; Hypoxia, 5 μM) was “tail off”, the “PROLIFERATION (24 hours)” value (Mat-LyLu cells [5]; Hypoxia, 10 μM) was “tail off” and the “PROLIFERATION (24 hours)” value (Mat-LyLu cells [5]; Hypoxia, 30 μM) was “tail off”. The “PROLIFERATION (24 hours)” value (Mat-LyLu cells [5]; Normoxia, 3 μM) was “no effect”, the “PROLIFERATION (24 hours)” value (Mat-LyLu cells [5]; Normoxia, 5 μM) was “tail off” and the “PROLIFERATION (24 hours)” value (Mat-LyLu cells [5]; Normoxia, 10 μM) was “tail off”. The “PROLIFERATION (24 hours)” value (Mat-LyLu cells [5]; Normoxia, 30 μM) was “tail off”.

From US12534444B2, “Treatment of cancer/inhibition of metastasis” (Celex Oncology Innovations Limited, priority 2010, dated 2026)
